Data reported in patent US11267861B2, “Peptide-oligourea foldamer compounds and methods of their use” (UREKA SARL, priority 2016, dated 2022).
≈ marks a conversion by molar mass, not a printed value. Numbered stars: 1 amine (or outer) side, 2 acyl side, 3 side chain; on linkers, the order of the positions; unused ones are H or OH. Peptide text beside a SMILES is read from it. * marks the point of attachment. X10 = C[C@@H](CN*)NC(=O)[C@@H](N)Cc1c[nH]cn1; X2 = C[C@@H](O)[C@H](N)C(=O)N[C@@H](CO)CN*; X3 = O=C(O)[C@@H]1CCCN1C(=O)NC[C@H](CO)N*; CO = O=C([*:1])[*:2]

Tests used:
[1] = molecular target: T1, Leucyl aminopeptidase (EC 3.4.11.1) (Sus scrofa, UniProt P28839); test: Enzymatic degradation by leucyl aminopeptidase; format: in vitro ADME, porcine; conditions: compared to the native peptides
T1 construct: from porcine kidney (Sigma); chromatographically purified suspension; purchased Sigma; host or cells: porcine kidney
T1 sequence (P28839 1-519): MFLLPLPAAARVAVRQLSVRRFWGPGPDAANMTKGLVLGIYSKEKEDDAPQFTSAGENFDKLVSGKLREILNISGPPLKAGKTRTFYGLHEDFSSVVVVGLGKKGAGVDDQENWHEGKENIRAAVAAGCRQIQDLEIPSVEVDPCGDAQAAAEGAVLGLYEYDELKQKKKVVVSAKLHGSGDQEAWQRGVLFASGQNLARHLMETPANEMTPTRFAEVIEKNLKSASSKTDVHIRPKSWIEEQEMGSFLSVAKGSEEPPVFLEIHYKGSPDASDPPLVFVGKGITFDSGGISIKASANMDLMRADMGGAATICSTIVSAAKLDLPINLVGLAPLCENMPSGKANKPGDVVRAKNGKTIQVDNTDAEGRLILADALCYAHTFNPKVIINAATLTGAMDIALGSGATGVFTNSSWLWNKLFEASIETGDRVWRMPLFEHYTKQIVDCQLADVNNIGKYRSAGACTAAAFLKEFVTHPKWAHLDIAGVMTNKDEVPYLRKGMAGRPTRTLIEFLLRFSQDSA
Method: Enzymatic Degradation—Leucyl Aminopeptidase. Leucyl aminopeptidase (EC 3.4.11.1) from porcine kidney (Sigma); chromatographically purified suspension in 2.9 M (NH4)2SO4, 0.1 M Tris, 5 mM MgCl2 solution, pH 8.0; stock solution in PBS buffer (pH 7.2, 0.01 M). For each degradation experiment, stock solutions of the peptidic substrate and the enzyme were made using phosphate-buffered saline (PBS) buffer solution. […] The pH was adjusted either with NaOH (1 M) or with HCl (1 M) prior to use. A solution of the substrate in PBS buffer (pH 7.2, 0.01 M) and a solution of the required amount of enzyme, were mixed and incubated at 25° C. for 4 hours. Degradation was stopped with concentrated AcOH, and buffer solution was added so that the total volume reached 150 μL.
(§1) The resulting mixture was analyzed by reversed-phase HPLC. A mixture of CH3CN/H2O (0.1% TFA) was used as eluent. Gradients were 10% CH3CN to 100% CH3CN in 10 minutes. The flow rate, for all separations, was 1 mL·min^−1.

[2] = molecular target: T2, Carboxypeptidase A (EC 3.4.17.1) (Bos taurus, UniProt P00730); test: Enzymatic degradation by carboxypeptidase A; format: in vitro ADME, bovine; conditions: same results = more stable than the native peptides
T2 construct: from bovine pancreas (Fluka), milky suspension; purchased Fluka; host or cells: bovine pancreas
T2 sequence (P00730 111-419): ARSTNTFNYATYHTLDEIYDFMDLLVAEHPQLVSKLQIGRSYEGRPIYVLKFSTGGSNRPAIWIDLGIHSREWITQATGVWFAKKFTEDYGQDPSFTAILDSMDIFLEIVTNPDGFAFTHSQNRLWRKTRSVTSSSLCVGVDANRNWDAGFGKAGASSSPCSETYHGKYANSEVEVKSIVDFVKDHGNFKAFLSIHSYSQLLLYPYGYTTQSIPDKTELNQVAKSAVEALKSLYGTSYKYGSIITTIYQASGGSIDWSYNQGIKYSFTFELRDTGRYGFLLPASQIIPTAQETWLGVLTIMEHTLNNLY
Method: Enzymatic Degradation—Carboxypeptidase A. Carboxypeptidase A (EC 3.4.17.1) from bovine pancreas (Fluka), milky suspension, stock solution in PBS buffer (pH 7.5, 0.01 M). For each degradation experiment, stock solutions of the peptidic substrate and the enzyme were made using phosphate-buffered saline (PBS) buffer solution. The enzyme concentrations of the stock solutions were selected such that the standard substrates were totally degraded after a maximum of 15 min (ratio 2[enzyme]:100[substrate]). PBS buffer solution (10 mM sodium phosphate, 0.14 M NaCl) was prepared as follows: Solution A (4.75 mL of 0.2 M NaH2PO4.H2O), solution B (20.25 mL of 0.2 M Na2HPO4.H2O), NaCl (4.5 g) and H2O (25 mL) were stirred for 15 min at room temperature and diluted tenfold with H2O. The pH was adjusted either with NaOH (1 M) or with HCl (1 M) prior to use. A solution of the substrate in PBS buffer (pH 7.5, 0.01 M) and a solution of the required amount of enzyme, were mixed and incubated at 25° C. for 4 hours. Degradation was stopped with concentrated AcOH, and buffer solution was added so that the total volume reached 150 μL.
as §1

[3] = in vivo; cited from earlier work
[4] = molecular target: T3, mouse GLP-1 receptor (Mus musculus, UniProt O35659); test: GLP-1 functional assay: agonist activity by cAMP production (HTRF) in βTC6 cells; format: cell-based; conditions: read-out: EC50 (nM), GLP-1 Functional Assay
T3 construct: mouse GLP-1 receptor endogenously expressed in βTC6 cells; endogenous in cells; host or cells: βTC6 cells
T3 sequence (O35659 22-463): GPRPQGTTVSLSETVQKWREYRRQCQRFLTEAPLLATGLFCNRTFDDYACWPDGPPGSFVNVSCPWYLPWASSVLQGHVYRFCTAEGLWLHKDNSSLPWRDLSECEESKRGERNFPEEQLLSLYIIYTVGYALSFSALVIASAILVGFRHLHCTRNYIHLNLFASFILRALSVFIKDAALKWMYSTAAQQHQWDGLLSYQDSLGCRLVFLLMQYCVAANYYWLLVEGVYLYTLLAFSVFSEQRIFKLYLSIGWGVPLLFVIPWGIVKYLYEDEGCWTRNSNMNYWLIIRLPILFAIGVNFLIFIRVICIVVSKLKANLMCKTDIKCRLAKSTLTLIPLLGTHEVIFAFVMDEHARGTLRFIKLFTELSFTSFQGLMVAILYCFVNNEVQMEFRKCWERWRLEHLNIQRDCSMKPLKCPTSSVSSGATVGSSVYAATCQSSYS
Method: For stimulated control measurement, separate assay wells contain 10 nM GLP-1(7-37) were utilized.
(§2) Following incubation, the cells were lysed and the fluorescence acceptor (D2-labeled cAMP) and fluorescence donor (anti-cAMP antibody labeled with europium cryptate) were added. […] The results are expressed as a percent of the control response to 10 nM GLP-1(7-37). The standard reference agonist is GLP-1(7-37), which was tested in each experiment at several concentrations to generate a concentration-response curve from which its EC50 value was calculated.
(§3) HTRF (Homogeneous Time-Resolved Fluorescence) principle. The HTRF technology is based on time resolved fluorescence energy transfer (TR-FRET), which occurs between long-lived fluorophore Europium or Terbium Cryptates, and EuK or Tb respectively, as a donor and the allophycocyanin XL665, d2 or Red as acceptor. Many compounds and proteins present in biological fluids or serum are naturally fluorescent, and the use of conventional, prompt fluorescence leads to serious limitations in assay sensitivity. The use of long-lived fluorophore combined with time-resolved detection (a delay between excitation and emission detection) minimizes prompt fluorescence interference.

[5] = molecular target: T4, human glucagon receptor (Homo sapiens, UniProt P47871); test: Glucagon functional assay: agonist activity by cAMP production (HTRF) in transfected CHO cells; format: cell-based; conditions: cAMP production, transfected CHO cells, 10 minutes at 37° C.
T4 construct: expressed in transfected cells; host or cells: CHO cells
Method: Functional Assay to Examine Bioactivity of Glucagon Receptor Agonists. Evaluation of the agonist activity of compounds at the human glucagon receptor expressed in transfected CHO cells was examined by measuring their effects on cAMP production using the HTRF detection method. […] For stimulated control measurement, separate assay wells contain 100 nM glucagon were utilized.
as §2, with “100” for “10”, “glucagon.” for “GLP-1(7-37).”, “glucagon,” for “GLP-1(7-37),”
as §3

[6] = Solubility of glucagon analogs (UV absorbance); format: physicochemical; conditions: for solubility: 0.01M HCl solution adjusted to pH 7 with Na2HPO4, pH 7, pH adjusted to 7 with Na2HPO4, incubated overnight at 4° C.; for ratio (solubility relative to reference compound 16): relative to compound 16;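 on all read-outs here: peptide stock at 3 mg/ml in 0.01 M HCl, absorbance at 280 nm read before neutralization and again on the diluted supernatant after centrifugation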
Method: A solution of 3 mg/ml of glucagon (or analog) was prepared in a 0.01M HCl solution. Then 0.1 ml of the stock solution was diluted to 1 ml with HCl (0.01M) and the UV absorbance measured (to 280 nm) with nanodrop UV spectrometer. The pH of the remaining stock solution was adjusted to 7 using Na2HPO4, and the solution was incubated overnight at 4° C. The solution was then centrifuged three times (5 minutes, 4000 rotations per minute), 0.1 ml of the supernatant was removed and diluted to 1 ml with HCl solution (0.01M).
The final UV absorbance was measured.

T4 sequence (P47871 26-477): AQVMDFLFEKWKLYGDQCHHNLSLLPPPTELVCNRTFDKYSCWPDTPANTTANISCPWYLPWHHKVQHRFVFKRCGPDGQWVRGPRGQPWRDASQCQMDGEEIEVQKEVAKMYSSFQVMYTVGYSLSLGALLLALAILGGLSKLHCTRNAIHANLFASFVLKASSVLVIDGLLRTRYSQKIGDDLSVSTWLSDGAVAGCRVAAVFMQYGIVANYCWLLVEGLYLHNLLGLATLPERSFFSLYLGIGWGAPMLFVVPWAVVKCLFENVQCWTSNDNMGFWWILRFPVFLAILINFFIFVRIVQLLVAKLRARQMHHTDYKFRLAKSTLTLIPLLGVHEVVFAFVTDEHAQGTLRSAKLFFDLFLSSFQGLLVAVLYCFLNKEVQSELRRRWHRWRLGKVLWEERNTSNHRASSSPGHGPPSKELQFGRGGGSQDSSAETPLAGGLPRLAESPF

For `CCCC[C@H](NC(=O)[C@H](CC(C)C)NC(=O)[C@H](Cc1c[nH]c2ccccc12)NC(=O)[C@H](CCC(N)=O)NC(=O)[C@@H](NC(=O)[C@H](Cc1ccccc1)NC(=O)[C@H](CC(=O)O)NC(=O)[C@H](CCC(N)=O)NC(=O)[C@H](C)NC(=O)[C@H](CCCNC(=N)N)NC(=O)[C@H](CCCNC(=N)N)NC(=O)[C@H](CO)NC(=O)[C@H](CC(=O)O)NC(=O)[C@H](CC(C)C)NC(=O)[C@H](Cc1ccc(O)cc1)NC(=O)[C@H](CCCCN)NC(=O)[C@H](CO)NC(=O)[C@H](Cc1ccc(O)cc1)NC(=O)[C@H](CC(=O)O)NC(=O)[C@H](CO)NC(=O)[C@@H](NC(=O)[C@H](Cc1ccccc1)NC(=O)[C@@H](NC(=O)CNC(=O)[C@H](CCC(N)=O)NC(=O)[C@H](CO)NC(=O)NC[C@@H](N)Cc1c[nH]cn1)[C@@H](C)O)[C@@H](C)O)C(C)C)C(=O)N[C@@H](CC(N)=O)C(=O)N[C@H](C(=O)O)[C@@H](C)O` [Compound 17], the “stability (half-life) with leucyl aminopeptidase compared to native peptides” value [1] was “more stable than the native peptides”.
For `CC(C)C[C@H](NC(=O)[C@H](C)NC(=O)[C@H](Cc1c[nH]c2ccccc12)NC(=O)[C@H](Cc1ccc(O)cc1)NC(=O)[C@H](CCC(=O)O)NC(=O)[C@H](C)NC(=O)[C@H](Cc1ccccc1)NC(=O)NC[C@H](CO)NC(=O)[C@@H](N)[C@@H](C)O)C(=O)N[C@@H](CC(C)C)C(=O)N[C@@H](CO)CNC(=O)N1CCC[C@H]1C(=O)O` [Compound 24] ({X2-CO}-FAEYWALL-X3), the “stability with carboxipeptidase A compared to native peptides” value [2] was “same results”.
For Albiglutide, the half-life [3] is given as “four to seven”.
Work on “{X10-CO}-EGTFTSDLSKQLEEEAVRLFIEWLKNGGPSSGAPPSKKKKKK-NH2 [Compound 67]” yielded an EC50 [4] of 0.082 nM.
In the case of `CCCC[C@H](NC(=O)[C@H](CC(C)C)NC(=O)[C@H](Cc1c[nH]c2ccccc12)NC(=O)[C@H](CCC(N)=O)NC(=O)[C@@H](NC(=O)[C@H](Cc1ccccc1)NC(=O)[C@H](CC(=O)O)NC(=O)[C@H](CCC(N)=O)NC(=O)[C@H](C)NC(=O)[C@H](CCCNC(=N)N)NC(=O)[C@H](CCCNC(=N)N)NC(=O)[C@H](CO)NC(=O)[C@H](CC(=O)O)NC(=O)[C@H](CC(C)C)NC(=O)[C@H](Cc1ccc(O)cc1)NC(=O)[C@H](CCCCN)NC(=O)[C@H](CO)NC(=O)[C@H](Cc1ccc(O)cc1)NC(=O)[C@H](CC(=O)O)NC(=O)[C@H](CO)NC(=O)[C@@H](NC(=O)[C@H](Cc1ccccc1)NC(=O)[C@@H](NC(=O)CNC(=O)[C@H](CCC(N)=O)NC(=O)NC[C@H](CO)NC(=O)[C@@H](N)Cc1c[nH]cn1)[C@@H](C)O)[C@@H](C)O)C(C)C)C(=O)N[C@@H](CC(N)=O)C(=O)N[C@H](C(=O)O)[C@@H](C)O` [Compound 18], the “stability (half-life) with leucyl aminopeptidase compared to native peptides” value [1] is reported as “more stable than the native peptides”.
In the case of `CCCC[C@H](NC(=O)[C@H](CC(C)C)NC(=O)[C@H](Cc1c[nH]c2ccccc12)NC(=O)NC[C@H](CCC(N)=O)NC(=O)[C@@H](NC(=O)[C@H](Cc1ccccc1)NC(=O)[C@H](CC(=O)O)NC(=O)[C@H](CCC(N)=O)NC(=O)[C@H](C)NC(=O)[C@H](CCCNC(=N)N)NC(=O)[C@H](CCCNC(=N)N)NC(=O)[C@H](CO)NC(=O)[C@H](CC(=O)O)NC(=O)[C@H](CC(C)C)NC(=O)[C@H](Cc1ccc(O)cc1)NC(=O)[C@H](CCCCN)NC(=O)[C@H](CO)NC(=O)[C@H](Cc1ccc(O)cc1)NC(=O)[C@H](CC(=O)O)NC(=O)[C@H](CO)NC(=O)[C@@H](NC(=O)[C@H](Cc1ccccc1)NC(=O)[C@@H](NC(=O)CNC(=O)[C@H](CCC(N)=O)NC(=O)[C@H](CO)NC(=O)[C@@H](N)Cc1c[nH]cn1)[C@@H](C)O)[C@@H](C)O)C(C)C)C(=O)N[C@@H](CC(N)=O)C(=O)N[C@H](C(=O)O)[C@@H](C)O` [Compound 64], the EC50 [5] is reported as 0.16 nM, the solubility [6] is reported as 940 µg/mL (≈ 269 µM) and the “ratio (solubility relative to reference compound 16)” value [6] is reported as 3.7.
In the case of `CCCC[C@H](NC(=O)[C@H](CC(C)C)NC(=O)[C@H](Cc1c[nH]c2ccccc12)NC(=O)[C@H](CCC(N)=O)NC(=O)NC[C@H](C)NC(=O)[C@H](Cc1ccccc1)NC(=O)[C@H](CC(=O)O)NC(=O)[C@H](CCC(N)=O)NC(=O)[C@H](C)NC(=O)[C@H](CCCNC(=N)N)NC(=O)[C@H](CCCNC(=N)N)NC(=O)[C@H](CO)NC(=O)[C@H](CC(=O)O)NC(=O)[C@H](CC(C)C)NC(=O)[C@H](Cc1ccc(O)cc1)NC(=O)[C@H](CCCCN)NC(=O)[C@H](CO)NC(=O)[C@H](Cc1ccc(O)cc1)NC(=O)[C@H](CC(=O)O)NC(=O)[C@H](CO)NC(=O)[C@@H](NC(=O)[C@H](Cc1ccccc1)NC(=O)[C@@H](NC(=O)CNC(=O)[C@H](CCC(N)=O)NC(=O)[C@H](CO)NC(=O)[C@@H](N)Cc1c[nH]cn1)[C@@H](C)O)[C@@H](C)O)C(=O)N[C@@H](CC(N)=O)C(=O)N[C@H](C(=O)O)[C@@H](C)O` [Compound 55], the EC50 [5] is reported as 34 nM, the solubility [6] is reported as 1390 µg/mL (≈ 401 µM) and the “ratio (solubility relative to reference compound 16)” value [6] is reported as 5.5.
